Key:
Lsa-nAChR1 (α1α2β1β2) [1] = molecular target: T1, Lsa-nAChR1 (α1α2β1β2) (Lepeophtheirus salmonis, UniProt A0A7S5PZ05+A0A7S5Q3W4+A0A7S5Q7H3+A0A7S5U9A3); test: cell-based; assay type: cell-based
Procedure: (§1) Capped cRNAs were synthesized (T7 mMessage mMachine kit, Ambion, Austin, TX, USA) from the linearized vectors containing the different subunits according to the manufacturer’s protocol. cRNA samples were stored at -80°C until use. Oocytes were ordered from Ecocyte (Germany). Oocytes were microinjected using a Roboinject automatic injection system (Multi Channel Systems, Reutlingen, Germany) with 15–25 nl of cRNA solution (30–300 ng/μl per subunit) and then incubated at 18°C in sterile filtered Barth solution containing: NaCl (88 mM), KCl (1 mM), NaHCO3 (2.4 mM), HEPES (10 mM, pH 7.5), MgSO4·7H2O (0.82 mM), Ca(NO3)2·4H2O (0.33 mM), CaCl2·6H2O (0.41 mM), at pH 7.4, and supplemented with 20 μg/ml of kanamycin, 100 U/ml benzylpenicillin and 100 μg/ml streptomycin. Recordings were made 3–5 days post-cRNA injection.
(§2) Oocytes were impaled with two electrodes filled with 3 M KCl, and their membrane potentials were maintained at -80 mV throughout the experiment. Currents evoked by ACh or drugs were recorded using an automated process equipped with standard two-electrode voltage-clamp configuration (HiClamp, MultiChannel Systems). The principle of this system differs from standard electrophysiology because, instead of applying the compound in the perfusion, the oocyte is moved into a well from a 96-well microtiter plate containing the desired solution. Data were captured at 100 Hz, filtered at 10 Hz, and analyzed using proprietary data acquisition and analysis software running under Matlab (Mathworks Inc., Natick, MA, USA). Additional analyses were performed in Excel (Microsoft, Redmond, WA, USA). […] Concentration-activation curves were fitted with the equation: Y=100/1+10^H(logEC50−X) (1) where Y is the normalized response, logEC50 is the logarithm of the concentration of agonist eliciting half-maximal current amplitude, X is the log of dose or concentration, and H is the slope factor or Hill slope. Individual curves were standardized to the initial ACh (100 μM) application amplitude and subsequently averaged. EC50 values were determined from the mean of at least 3 or more cells.
(§3) Dose-response curves were obtained by sequential applications for 10s of increasing concentrations of ACh or drugs to oocytes expressing Lsa-nAChR1 or Lsa-nAChR2. A total time of 90 s time was allowed between applications for the channel to recover from any desensitization. To test the antagonistic effect of DHbE (Fig 5) and for the screening protocol (Fig 6), cells that evoked a significant current with ACh were exposed to the test compounds at 10 μM respectively 1 μM using a pre-application of 45 s and co-application of 10 s with ACh (1 μM).

Lsa-nAChR2 (α3β1β2) [2] = molecular target: T2, Lsa-nAChR2 (α3β1β2) (Lepeophtheirus salmonis, UniProt A0A7S5PZ03+A0A7S5PZ05+A0A7S5Q7H3); test: cell-based; assay type: cell-based
Procedure: as §1, §2, §3

[3] = system: six nAChR subunits (α1, α2, α3, α7, β1 and β2) and the three APs; test: Two-electrode voltage-clamp, oocytes co-injected with all six nAChR subunits and three ancillary proteins; assay type: cell-based, Lepeophtheirus salmonis; conditions: equimolar co-injection
Text: (§4) To determine the subunit composition of the functional L. salmonis nAChR channel, we tried different possible combinations of the six nAChR subunit (α1, α2, α3, α7, β1 and β2) cRNAs along with the cRNAs from the three AP, injected into X. laevis oocytes, which is one of the most commonly used systems for functional expression of nAChRs. Three to five days after injection, the presence of a functional nAChR was investigated by the two-electrode voltage-clamp method. To determine the relative contribution of each gene for the functional expression of nAChR, we removed cRNAs from the injection mixture, either singularly or in combination (Fig 2). […]
(§5) Oocytes were impaled with two electrodes filled with 3 M KCl, and their membrane potentials were maintained at -80 mV throughout the experiment. Currents evoked by ACh or drugs were recorded using an automated process equipped with standard two-electrode voltage-clamp configuration (HiClamp, MultiChannel Systems). […] Data were captured at 100 Hz, filtered at 10 Hz, and analyzed using proprietary data acquisition and analysis software running under Matlab (Mathworks Inc., Natick, MA, USA). […] Plots of the peak inward currents as a function of the logarithm of the agonist concentration yield classical concentration-activation curves were readily fitted by single Hill equations. […]

[4] = system: Lsa-nAChR-α1 and Lsa-nAChR-α2 with Lsa-nAChR-β1 and APs (Lsa-nAChR-β2 removed); test: Two-electrode voltage-clamp, oocytes with Lsa-nAChR-α1, -α2, -β1 and APs (Lsa-nAChR-β2 removed); assay type: cell-based, Lepeophtheirus salmonis; conditions: Lsa-nAChR-β2 removed from injection mix
Text: as §4, §5

[5] = system: hybrid Locusta migratoria/Rattus norvegicus nAChR; set-up: method as in earlier work; conditions: hybrid receptor in Xenopus oocytes; ref 25 (Bao et al.); cited from earlier work
Lsa-nAChR1 (α1α2β1β2) [6] = molecular target: T1, Lsa-nAChR1 (α1α2β1β2); assay type: cell-based; conditions: co-applied at 10 μM, both ratios (10:1 and 1:10)
Lsa-nAChR2 (α3β1β2) [7] = molecular target: T2, Lsa-nAChR2 (α3β1β2); assay type: cell-based; conditions: co-applied at 10 μM, both ratios (10:1 and 1:10)
[8] = oocytes exposed to acetylcholine

T1 sequence (A0A7S5PZ05 entry or part of it): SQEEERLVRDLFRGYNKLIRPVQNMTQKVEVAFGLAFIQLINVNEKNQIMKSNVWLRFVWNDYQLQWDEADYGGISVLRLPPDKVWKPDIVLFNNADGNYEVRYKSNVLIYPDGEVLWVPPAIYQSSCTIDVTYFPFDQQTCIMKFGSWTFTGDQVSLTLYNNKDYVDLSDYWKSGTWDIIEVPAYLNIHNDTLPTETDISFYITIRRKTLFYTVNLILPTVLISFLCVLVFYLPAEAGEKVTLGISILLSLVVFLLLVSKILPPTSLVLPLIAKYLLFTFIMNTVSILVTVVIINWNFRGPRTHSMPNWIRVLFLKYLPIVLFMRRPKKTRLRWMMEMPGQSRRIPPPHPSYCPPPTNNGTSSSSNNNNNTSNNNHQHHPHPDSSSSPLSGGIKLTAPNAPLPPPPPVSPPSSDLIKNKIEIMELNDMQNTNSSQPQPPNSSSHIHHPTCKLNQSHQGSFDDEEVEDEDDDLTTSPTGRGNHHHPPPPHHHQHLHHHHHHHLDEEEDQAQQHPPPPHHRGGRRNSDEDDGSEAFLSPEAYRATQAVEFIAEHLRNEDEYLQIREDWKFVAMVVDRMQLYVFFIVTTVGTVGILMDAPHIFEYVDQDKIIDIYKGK
T1 sequence (A0A7S5Q3W4 entry or part of it): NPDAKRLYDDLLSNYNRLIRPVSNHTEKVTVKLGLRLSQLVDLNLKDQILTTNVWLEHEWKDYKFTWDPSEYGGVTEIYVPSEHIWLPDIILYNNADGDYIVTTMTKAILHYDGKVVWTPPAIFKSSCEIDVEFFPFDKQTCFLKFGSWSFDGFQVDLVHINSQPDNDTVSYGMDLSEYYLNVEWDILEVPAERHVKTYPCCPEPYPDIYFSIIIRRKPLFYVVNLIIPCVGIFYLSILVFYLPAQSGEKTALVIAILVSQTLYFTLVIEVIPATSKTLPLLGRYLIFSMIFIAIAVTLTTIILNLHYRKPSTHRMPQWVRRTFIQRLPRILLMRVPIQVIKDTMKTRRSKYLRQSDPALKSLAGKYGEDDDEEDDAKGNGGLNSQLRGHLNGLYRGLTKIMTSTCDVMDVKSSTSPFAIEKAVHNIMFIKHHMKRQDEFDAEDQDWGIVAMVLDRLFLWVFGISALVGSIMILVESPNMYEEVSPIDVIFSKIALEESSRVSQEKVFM
T1 sequence (A0A7S5U9A3 entry or part of it): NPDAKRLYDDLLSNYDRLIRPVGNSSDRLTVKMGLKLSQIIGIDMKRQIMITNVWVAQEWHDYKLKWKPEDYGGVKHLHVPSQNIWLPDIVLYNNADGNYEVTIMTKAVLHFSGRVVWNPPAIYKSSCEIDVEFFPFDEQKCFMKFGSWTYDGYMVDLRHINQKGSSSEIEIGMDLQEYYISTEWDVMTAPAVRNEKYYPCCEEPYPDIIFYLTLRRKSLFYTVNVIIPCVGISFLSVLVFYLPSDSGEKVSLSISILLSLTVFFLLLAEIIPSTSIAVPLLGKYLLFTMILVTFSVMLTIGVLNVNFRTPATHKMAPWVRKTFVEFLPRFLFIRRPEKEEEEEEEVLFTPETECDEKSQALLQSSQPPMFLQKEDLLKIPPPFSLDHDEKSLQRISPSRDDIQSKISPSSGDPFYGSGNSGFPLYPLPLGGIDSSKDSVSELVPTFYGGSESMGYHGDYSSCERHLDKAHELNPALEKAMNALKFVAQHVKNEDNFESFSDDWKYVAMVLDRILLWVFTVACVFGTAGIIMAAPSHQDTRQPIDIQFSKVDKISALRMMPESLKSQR
T1 sequence (A0A7S5Q7H3 entry or part of it): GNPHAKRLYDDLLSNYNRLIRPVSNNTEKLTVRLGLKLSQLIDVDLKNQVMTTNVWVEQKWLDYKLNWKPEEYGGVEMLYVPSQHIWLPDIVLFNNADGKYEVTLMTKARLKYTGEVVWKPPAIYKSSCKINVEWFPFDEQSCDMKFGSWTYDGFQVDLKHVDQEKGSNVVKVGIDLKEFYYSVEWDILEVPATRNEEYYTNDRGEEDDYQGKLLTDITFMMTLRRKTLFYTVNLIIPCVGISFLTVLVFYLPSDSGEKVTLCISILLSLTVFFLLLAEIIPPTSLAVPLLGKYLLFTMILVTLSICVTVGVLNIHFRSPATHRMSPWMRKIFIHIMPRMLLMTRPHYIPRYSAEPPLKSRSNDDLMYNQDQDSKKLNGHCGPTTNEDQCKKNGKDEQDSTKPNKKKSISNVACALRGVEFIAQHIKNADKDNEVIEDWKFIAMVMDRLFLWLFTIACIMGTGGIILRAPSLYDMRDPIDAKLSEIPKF

For `CC(=O)OCC[N+](C)(C)C` [Acetylcholine], which “current (median) with 100 μM ACh” value (Lsa-nAChR1 (α1α2β1β2) [1]; Lsa-nAChR-α1 and -α2 with both β subunits and APs) is on record?
Its value is 4.50 μA.

And the “type of effect on the receptor (agonist / partial-agonist / no effect)” value (Lsa-nAChR1 (α1α2β1β2) [1]; dose-response, 1:1 (α:β) ratio)?
Its value is “agonist”.

And the averaged maximum response (Lsa-nAChR1 (α1α2β1β2) [1]; [8])?
The averaged maximum response was over 5 μA.

What about the “Mean Hill Slope ± SD” value (Lsa-nAChR1 (α1α2β1β2) [1]; ratio α/β 1:10) of the same compound?
The value was 1.44 ± 0.52.

And the “Mean max current (μA)” value (Lsa-nAChR1 (α1α2β1β2) [1]; ratio α/β 1:10)?
Its value is 8.35 μA.

And the “Mean Hill Slope ± SD” value (Lsa-nAChR1 (α1α2β1β2) [1]; ratio α/β 10:1)?
Its value is 1.46 ± 0.37.

What about the “Mean max current (μA)” value (Lsa-nAChR1 (α1α2β1β2) [1]; ratio α/β 10:1) of the same compound?
Its value is 4.85 μA.

And the Emax (Lsa-nAChR1 (α1α2β1β2) [1]; read-out: Max peak (% Ach))?
The Emax was 100%.

What about the “type of effect on the receptor (agonist / partial-agonist / super-agonist / no effect)” value (Lsa-nAChR2 (α3β1β2) [2]; dose-response, 1:1 (α:β) ratio) of the same compound?
The value was “agonist”.

And the “Max peak (% Ach)” value (Lsa-nAChR2 (α3β1β2) [2]; maximal peak current compared to ACh 100 μM, 1:1 (α:β) ratio)?
The value was 100%.

What about the averaged maximum response (Lsa-nAChR2 (α3β1β2) [2]; [8]) of the same compound?
Its averaged maximum response is over 5 μA.

And the “Mean Hill Slope ± SD” value (Lsa-nAChR2 (α3β1β2) [2]; ratio α/β 1:10)?
The value was 1.25 ± 0.23.

What about the “Mean max current (μA)” value (Lsa-nAChR2 (α3β1β2) [2]; ratio α/β 1:10) of the same compound?
The value was 3.17 μA.

What about the “Mean Hill Slope ± SD” value (Lsa-nAChR2 (α3β1β2) [2]; ratio α/β 10:1) of the same compound?
The value was 1.30 ± 0.22.

What about the “Mean max current (μA)” value (Lsa-nAChR2 (α3β1β2) [2]; ratio α/β 10:1) of the same compound?
Its value is 2.52 μA.

And the “current (median) with 100 μM ACh” value [3]?
The value was 17.00 μA.

What about the “current (median) with 100 μM ACh” value [4] of the same compound?
The value was 0.17 μA.

What about the “maximum response to acetylcholine” value [5] of the same compound?
Its value is 0.24 μA.

With `CO[C@H]1CC=C2CCN3CCC4=C(CC(=O)OC4)[C@]23C1` [DHbE, Dihydro-β-erythroidine] as the compound, how does the “inhibition of the ACh-triggered (10 μM) response” value (Lsa-nAChR1 (α1α2β1β2) [6]) read?
The value was “completely inhibit”.

What about the “inhibition of the ACh-triggered (10 μM) response” value (Lsa-nAChR2 (α3β1β2) [7]) of the same compound?
Its value is “completely inhibit”.
